According to patent US11576918B2, “Pharmaceutical composition and extract of Dendrobii Caulis with eye care effect and uses of preparing the same thereof” (AMX Pharma Inc., priority 2019, dated 2023):
Read-outs that look alike come from different tables or passages of the source.

Legend:
[1] = tested on: RGC-5 cells; format: cell-based; set-up: toxic reaction / protective activity: dose or concentration left out as unconfirmed; details: for protection effect (cell viability): 500 μM hydrogen peroxide, 24 h pre-treatment
Protocol: (§1) The present experiment took human retinal cell (ARPE-19) and rat retinal ganglion cells (RGC-5) as model cell lines. ARPE-19 cells were cultured in DMEM-F12 medium containing 10% fetal bovine serum (FBS), 0.2% sodium bicarbonate and antibiotics (penicillin 100 units/ml, streptomycin 100 μg/ml); RGC-5 were cultured in DMEM medium containing 10% fetal bovine serum (FBS) and antibiotics (penicillin 100 units/ml, streptomycin 100 μg/ml).
(§2) ARPE-19 and RGC-5 cells were seeded in 96-well plate. After 1 day, the cells were pre-treated with different concentrations of Dendrobii Caulis extract (A or A-2) or compounds 1-4 for 24 hours, and then exposed to (1) hydrogen peroxide (H2O2; 500 μM)) or (2) hypoxic environment or (3) ultraviolet (UV) irradiation (30 μJ/cm^2; three consecutive shots, for 60 seconds each with 60 second intervals, to trigger cell death. After 24-h culture, medium was removed and replaced with 10% precooled trichloroacetic acid (TCA) to fix cells at 4° C. for 1 h, then washed with ddH2O and dried. Next, 0.4% SRB 100 μl (w/v, in 1% acetic acid) was added to each well to stain the cells for 60 minutes, then washed several times with 1% acetic acid and dried plate.—The SRB in cells was dissolved in 150 μl of 10 mM Tris-HCl and measured the absorbance at 540 nm in an ELISA reader. The survival rate was calculated by comparing each treatment with the untreated control group as the 100% survival rate.

[2] = tested on: ARPE-19 cells; format: cell-based; set-up: protective activity / toxic reaction: dose or concentration left out as unconfirmed; details: for protection effect (cell viability): 500 μM hydrogen peroxide, 24 h pre-treatment
Protocol: as §1, §2

[3] = tested on: optic nerve cell strains; details: some studies; cited from earlier work
[4] = tested on: retinal damage; details: absence of oxygen; recent study; cited from earlier work
[5] = tested on: zebrafish cataract; assay: UVC-induced zebrafish cataract test; format: in vivo
Protocol: Zebrafish were randomly grouped (12 for each group) into blank control group, UVC irradiation group (300 μJ/cm^2) and UVC irradiation+treating group with A-2 at 0.495, 0.99, and 4.95 mg/ml three dosages or with compound 1 at 0.1 and 1.0 mM two dosages. The zebrafish were pre-fed with A-2 or compound 1 for one week, then subjected to UVC irradiation to observe the crystal change of the zebrafish daily. Before irradiating with UVC, the zebrafish is under anesthesia to expose only its eye to UVC (300 μJ/cm^2) for about 3 minutes, consecutively holding for seven days. The zebrafish eyes were observed every day. The severity of zebrafish cataract was scored from 1 to 3, depending on the clear level of the crystal body, in which the higher score represents the more turbidity of the crystal body. The scores are then plotted.

[6] = 1-10 mM, hydrogen peroxide, hypoxia or UV treatment
[7] = hydrogen peroxide, hypoxia or UV irradiation
[8] = hydrogen peroxide, hypoxia or UV treatment
[9] = hydrogen peroxide and ultraviolet light

SMILES: CC(C)[C@@H]1[C@H]2OC(=O)[C@@H]1[C@@H]1CC[C@@H]3CN(C)[C@H]2[C@@]31C [compound 3, dendrobine]
- protection effect (cell viability) ([1]; hypoxia or UV irradiation): does not show enough protective activity
- protection effect (cell viability) ([2]; hypoxia or UV irradiation): does not show enough protective activity

SMILES: COc1cc(CCc2cc(OC)c(O)c(OC)c2)ccc1O [moscatilin]
- toxicity to optic nerve cell strains [3]: toxic
- protection of retinal damage [4]: can protect retinal damage in the absence of oxygen

SMILES: CC(C)(O)[C@H]1C2C(=O)OC1[C@@H](O)[C@]1(C)C2CC[C@H]1COC1OC(CO)C(O)C(O)C1O (stereo partly drawn) [compound 1, 2β, 3β, 11, 12-tetrahydroxypicrotoxan-3(15)-olide 11-O-β-D-glucopyranoside]
- occurrence of UV-induced cataract ([5]; 1 mM, fourth day): almost no cataract occurred
- occurrence of UV-induced cataract ([5]; 0.1 and 1.0 mM, pre-fed one week): can significantly reduce the occurrence of zebrafish cataract
- toxic reaction [1]: no toxic reaction
- protection effect (cell viability) ([1]; hypoxia or UV irradiation): can protect
- concentration dependence of protective activity [1, 6]: concentration-dependent protective activity
- protective effect compared with lutein [1, 7]: superior to lutein
- protective activity [1, 8]: more than 80%
- toxic reaction [2]: no toxic reaction
- protection effect (cell viability) ([2]; hypoxia or UV irradiation): can protect
- concentration dependence of protective activity [2, 6]: concentration-dependent protective activity
- protective effect compared with lutein [2, 7]: superior to lutein
- protective activity [2, 8]: more than 80%

SMILES: CC(C)(O)[C@H]1C2C(=O)OC1[C@@H](O)[C@]1(C)C2CC[C@H]1CO (stereo partly drawn) [compound 2, 2β, 3β, 11, 12-tetrahydroxypicrotoxan-3 (15)-olide]
- protection (cell viability) [1, 9]: can also protect
- protective effect compared with lutein [1, 9]: comparable to lutein
- protection (cell viability) [2, 9]: can also protect
- protective effect compared with lutein [2, 9]: comparable to lutein
